Measurements: PubChem BioAssay (NCI)
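Each compound was tested at five concentrations against cells in 96-well plates for 48 hours. GI50: concentration for 50% inhibition of growth. TGI marks complete inhibition of growth.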

How the values were obtained:
Experiment in all cases: NCI anticancer screen, dose series, 48 h
[1] = tested on: UO-31 renal
[2] = tested on: HT29 colon
[3] = tested on: CCRF-CEM leukemia
[4] = tested on: CAKI-1 renal
[5] = tested on: OVCAR-4 ovarian
[6] = tested on: OVCAR-8 ovarian
[7] = tested on: NCI-H460 lung
[8] = tested on: DU-145 prostate
[9] = tested on: T-47D breast
[10] = tested on: HOP-92 NSCLC
[11] = tested on: OVCAR-3 ovarian
[12] = tested on: SN12C renal
[13] = tested on: SF-295 CNS
[14] = tested on: HCT-116 colon
[15] = tested on: SK-MEL-5 melanoma
[16] = tested on: UACC-257 melanoma
[17] = tested on: SW-620 colon
[18] = tested on: TK-10 renal
[19] = tested on: RPMI-8226 leukemia
[20] = tested on: OVCAR-5 ovarian
[21] = tested on: SF-539 CNS
[22] = tested on: M14 melanoma
[23] = tested on: SNB-75 CNS
[24] = tested on: UACC-62 melanoma
[25] = tested on: HCT-15 colon
[26] = tested on: K-562 leukemia
[27] = tested on: NCI/ADR-RES ovarian
[28] = tested on: MALME-3M melanoma
[29] = tested on: RXF 393 renal

In the case of `CS(=O)(=O)Nc1ccc(Nc2c3ccccc3nc3cc(N)ccc23)cc1`, the GI50 [1] is reported as 3.13 µM, the TGI [1] is reported as greater than 100 µM and the GI50 [2] is reported as 5.15 µM. The TGI [2] was 31.7 µM, the GI50 [3] was 0.0776 µM and the TGI [3] was 2.04 µM. It also gave a GI50 [4] of 0.319 µM, a TGI [4] of 13 µM and a GI50 [5] of 2.92 µM. For the same compound, the TGI [5] was 26.8 µM, the GI50 [6] was 0.376 µM and the TGI [6] was 22.2 µM. The GI50 [7] was 0.0255 µM, the TGI [7] was 2.6 µM and the GI50 [8] was 0.48 µM. The TGI [8] was 26 µM, the GI50 [9] was 0.0806 µM and the TGI [9] was 2.52 µM. For the same compound, the GI50 [10] was 0.398 µM, the TGI [10] was 4.4 µM and the GI50 [11] was 1.7 µM. For the same compound, the TGI [11] was 8.83 µM, the GI50 [12] was 0.15 µM and the TGI [12] was 4.88 µM. It also gave a GI50 [13] of 0.227 µM, a TGI [13] of 6.79 µM and a GI50 [14] of 0.717 µM. The TGI [14] was 29.2 µM, the GI50 [15] was 0.615 µM and the TGI [15] was 5.45 µM. It also gave a GI50 [16] of 1.48 µM, a TGI [16] of 14.9 µM and a GI50 [17] of 0.561 µM. For the same compound, the TGI [17] was 30 µM, the GI50 [18] was 6.08 µM and the TGI [18] was 31.7 µM. For the same compound, the GI50 [19] was 0.567 µM, the TGI [19] was 6.84 µM and the GI50 [20] was 5.57 µM. It also gave a TGI [20] of 39.7 µM, a GI50 [21] of 0.531 µM and a TGI [21] of 9.47 µM. The GI50 [22] was 0.361 µM, the TGI [22] was 7.1 µM and the GI50 [23] was 0.726 µM. It also gave a TGI [23] of 12.4 µM, a GI50 [24] of 0.555 µM and a TGI [24] of 14.8 µM. For the same compound, the GI50 [25] was 11 µM, the TGI [25] was greater than 100 µM and the GI50 [26] was 1.31 µM. The TGI [26] was 23.9 µM, the GI50 [27] was greater than 100 µM and the TGI [27] was greater than 100 µM. It also gave a GI50 [28] of 0.62 µM, a TGI [28] of 3.66 µM and a GI50 [29] of 12.5 µM.
